This is an account of results in patent US20120122860A1, “SOLID FORMS OF SULFONAMIDES AND AMINO ACIDS” (Plexxikon, Inc., priority 2009, published 2012).

Series [1] in a line: Polymorph stability of P-1167 forms 1 and 2. In kind it is physicochemical. To be noted: P-1167 form 1 versus form 2. The source says: Propane-1-sulfonic acid {3-[5-(4-chloro-phenyl)-1H-pyrrolo[2,3-b]pyridine-3-carbonyl]-2,4-difluoro-phenyl}-amide (P-1167) may be prepared according to methods known in the art, for example, using methods described in U.S. patent application Ser. No. 11/473,347 (see also, PCT publication WO2007002433), the disclosure of which is hereby incorporated by reference. Compound P-1167 can exist in polymorphic forms, for example as polymorphic forms 1 or 2, where such polymorphic forms may be isolated as the substantially pure polymorph. The desired polymorphic form may be prepared, for example, by using appropriate crystallization conditions. For example, Form 1 was isolated by recrystallization from acetone/absolute ethanol (e.g. 1:1 to 5:1, preferably 2:1 by volume). […] The substantially pure isolated polymorphic forms were characterized by X-Ray Powder Diffraction (XRPD), differential scanning calorimetry (DSC) and infrared spectroscopy.

The target of another series is Kit (Homo sapiens, UniProt P10721). Put plainly: Kinase activity assay, Kit.
In another series the target is PI3Kα (Homo sapiens, UniProt P42336). Put plainly: Kinase activity assay, PI3Kα.
PI3Kα, sequence (P42336 whole entry): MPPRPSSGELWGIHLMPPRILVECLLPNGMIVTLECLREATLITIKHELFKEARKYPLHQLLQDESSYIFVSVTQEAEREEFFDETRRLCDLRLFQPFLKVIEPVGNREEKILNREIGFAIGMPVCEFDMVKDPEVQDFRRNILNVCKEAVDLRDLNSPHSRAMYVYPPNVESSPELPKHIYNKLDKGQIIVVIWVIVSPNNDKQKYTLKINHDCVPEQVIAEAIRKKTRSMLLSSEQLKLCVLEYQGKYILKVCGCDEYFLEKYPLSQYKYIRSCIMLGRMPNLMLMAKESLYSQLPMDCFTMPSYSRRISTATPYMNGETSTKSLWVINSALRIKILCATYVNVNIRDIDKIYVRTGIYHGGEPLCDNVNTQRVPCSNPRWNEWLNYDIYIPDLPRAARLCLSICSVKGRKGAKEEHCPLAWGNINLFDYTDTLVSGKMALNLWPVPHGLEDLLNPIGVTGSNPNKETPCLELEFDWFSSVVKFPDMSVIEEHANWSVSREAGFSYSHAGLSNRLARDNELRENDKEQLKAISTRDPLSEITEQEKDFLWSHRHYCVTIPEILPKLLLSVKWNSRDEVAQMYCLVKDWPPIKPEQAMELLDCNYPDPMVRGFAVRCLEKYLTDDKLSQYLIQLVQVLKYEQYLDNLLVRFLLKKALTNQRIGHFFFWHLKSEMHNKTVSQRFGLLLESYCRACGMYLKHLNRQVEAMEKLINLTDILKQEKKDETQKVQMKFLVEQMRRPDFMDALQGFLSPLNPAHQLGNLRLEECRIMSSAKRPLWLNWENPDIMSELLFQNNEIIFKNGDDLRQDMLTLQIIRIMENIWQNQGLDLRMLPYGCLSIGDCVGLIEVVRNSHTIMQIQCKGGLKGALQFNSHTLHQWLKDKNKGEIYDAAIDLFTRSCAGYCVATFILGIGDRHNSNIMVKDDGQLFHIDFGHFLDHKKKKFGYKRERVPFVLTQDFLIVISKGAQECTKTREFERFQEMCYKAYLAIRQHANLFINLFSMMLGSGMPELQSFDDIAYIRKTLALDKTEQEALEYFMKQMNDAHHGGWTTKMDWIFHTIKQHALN
PI3Kα, sequence (P27986 whole entry partner): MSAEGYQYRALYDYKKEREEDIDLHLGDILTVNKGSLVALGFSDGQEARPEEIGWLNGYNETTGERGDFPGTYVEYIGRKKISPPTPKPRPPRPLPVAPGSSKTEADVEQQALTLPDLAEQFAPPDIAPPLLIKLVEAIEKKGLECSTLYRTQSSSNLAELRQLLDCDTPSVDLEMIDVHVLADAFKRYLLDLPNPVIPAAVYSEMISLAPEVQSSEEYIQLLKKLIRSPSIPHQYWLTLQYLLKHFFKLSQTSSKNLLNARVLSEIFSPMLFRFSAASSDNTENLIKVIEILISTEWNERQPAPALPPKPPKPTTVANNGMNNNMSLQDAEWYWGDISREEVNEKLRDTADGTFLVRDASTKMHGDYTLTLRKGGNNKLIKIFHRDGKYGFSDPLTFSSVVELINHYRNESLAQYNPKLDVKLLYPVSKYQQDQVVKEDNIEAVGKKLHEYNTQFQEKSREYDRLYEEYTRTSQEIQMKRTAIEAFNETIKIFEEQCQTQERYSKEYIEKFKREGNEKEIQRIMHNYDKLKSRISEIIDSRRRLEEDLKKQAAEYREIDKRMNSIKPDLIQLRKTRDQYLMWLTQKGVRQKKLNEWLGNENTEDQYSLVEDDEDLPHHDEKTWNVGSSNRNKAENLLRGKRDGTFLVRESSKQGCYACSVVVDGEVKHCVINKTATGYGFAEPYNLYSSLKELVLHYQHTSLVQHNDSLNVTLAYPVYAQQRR
A further series concerns the target Src (Homo sapiens, UniProt P12931). Put plainly: Kinase activity assay, Src.
The target in the next series is Kdr (Homo sapiens, UniProt P35968). Put plainly: Kinase activity assay, Kdr.
In the next series the target is PI3Kδ (Homo sapiens, UniProt O00329). Put plainly: Kinase activity assay, PI3Kδ.
PI3Kδ, sequence (O00329 whole entry): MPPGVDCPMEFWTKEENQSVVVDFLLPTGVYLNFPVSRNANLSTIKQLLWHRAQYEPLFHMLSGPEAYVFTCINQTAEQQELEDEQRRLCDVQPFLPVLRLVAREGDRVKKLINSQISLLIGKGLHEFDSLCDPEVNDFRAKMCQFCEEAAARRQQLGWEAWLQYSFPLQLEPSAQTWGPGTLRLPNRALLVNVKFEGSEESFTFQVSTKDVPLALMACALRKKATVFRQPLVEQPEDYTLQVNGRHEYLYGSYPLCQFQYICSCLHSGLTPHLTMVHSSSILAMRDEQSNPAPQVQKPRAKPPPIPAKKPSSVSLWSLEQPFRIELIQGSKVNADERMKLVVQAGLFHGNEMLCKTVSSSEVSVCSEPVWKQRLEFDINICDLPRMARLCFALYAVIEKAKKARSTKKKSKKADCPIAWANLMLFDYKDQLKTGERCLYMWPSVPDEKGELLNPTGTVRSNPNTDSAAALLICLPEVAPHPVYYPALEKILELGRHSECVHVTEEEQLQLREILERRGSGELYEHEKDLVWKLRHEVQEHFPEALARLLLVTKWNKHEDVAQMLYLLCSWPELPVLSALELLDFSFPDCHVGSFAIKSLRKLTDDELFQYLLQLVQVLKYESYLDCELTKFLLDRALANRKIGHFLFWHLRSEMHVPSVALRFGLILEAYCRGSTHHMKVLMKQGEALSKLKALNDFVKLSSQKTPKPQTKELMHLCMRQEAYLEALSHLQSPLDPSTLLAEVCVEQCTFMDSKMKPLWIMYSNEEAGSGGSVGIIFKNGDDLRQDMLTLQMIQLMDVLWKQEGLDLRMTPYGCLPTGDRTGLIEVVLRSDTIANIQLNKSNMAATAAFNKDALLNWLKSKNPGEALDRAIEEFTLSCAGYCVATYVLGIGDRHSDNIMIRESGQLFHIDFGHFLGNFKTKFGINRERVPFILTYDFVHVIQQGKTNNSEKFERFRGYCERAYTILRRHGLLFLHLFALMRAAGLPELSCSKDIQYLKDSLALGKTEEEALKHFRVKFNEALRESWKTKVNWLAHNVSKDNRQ
PI3Kδ, sequence (P27986 whole entry partner): as the sequence (P27986 whole entry partner) above
For the next series, the target named is B-Raf V600E (Homo sapiens, UniProt P15056, V600E). Kind of series: Kinase activity assay, B-Raf V600E. The class given is biochemical. Conditions: read-out: activity toward kinase B-Raf V600E, IC50.
B-Raf V600E, sequence (P15056 whole entry V600E): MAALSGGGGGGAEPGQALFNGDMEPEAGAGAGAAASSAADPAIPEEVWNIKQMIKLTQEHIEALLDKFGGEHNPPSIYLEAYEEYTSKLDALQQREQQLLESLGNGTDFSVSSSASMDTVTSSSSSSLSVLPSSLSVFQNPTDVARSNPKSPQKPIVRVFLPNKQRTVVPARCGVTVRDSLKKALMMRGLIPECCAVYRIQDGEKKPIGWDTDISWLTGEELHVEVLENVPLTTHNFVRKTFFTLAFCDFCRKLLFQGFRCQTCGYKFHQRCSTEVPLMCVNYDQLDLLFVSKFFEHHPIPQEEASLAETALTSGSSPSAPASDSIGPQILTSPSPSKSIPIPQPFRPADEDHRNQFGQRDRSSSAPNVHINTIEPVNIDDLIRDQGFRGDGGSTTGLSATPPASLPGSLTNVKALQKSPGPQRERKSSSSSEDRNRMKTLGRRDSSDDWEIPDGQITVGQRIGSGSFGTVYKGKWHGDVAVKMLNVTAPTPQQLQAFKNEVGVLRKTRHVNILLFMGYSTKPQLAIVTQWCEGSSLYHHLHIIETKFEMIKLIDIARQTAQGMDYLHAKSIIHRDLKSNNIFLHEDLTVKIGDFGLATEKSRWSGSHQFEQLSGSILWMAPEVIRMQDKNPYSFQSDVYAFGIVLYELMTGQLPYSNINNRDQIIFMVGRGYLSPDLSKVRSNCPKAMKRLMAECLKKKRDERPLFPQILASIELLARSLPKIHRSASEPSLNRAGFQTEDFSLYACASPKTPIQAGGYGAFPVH
The next series concerns the target Fms (Homo sapiens, UniProt P07333). Kind of series: Kinase activity assay, Fms.
The next series addresses PI3Kγ (Homo sapiens, UniProt P48736). Kind of series: Kinase activity assay, PI3Kγ.
Another series addresses B-Raf (Homo sapiens, UniProt P15056). Put plainly: Kinase activity assay, B-Raf. In kind it is biochemical. To be noted: read-out: activity toward kinase B-Raf, IC50.
Another series addresses MAP4K4 (Homo sapiens, UniProt O95819). Kind of series: Kinase activity assay, MAP4K4.
The target in a further series is T1, A-Raf (Homo sapiens, UniProt P10398).
T1 sequence (P10398 1-606): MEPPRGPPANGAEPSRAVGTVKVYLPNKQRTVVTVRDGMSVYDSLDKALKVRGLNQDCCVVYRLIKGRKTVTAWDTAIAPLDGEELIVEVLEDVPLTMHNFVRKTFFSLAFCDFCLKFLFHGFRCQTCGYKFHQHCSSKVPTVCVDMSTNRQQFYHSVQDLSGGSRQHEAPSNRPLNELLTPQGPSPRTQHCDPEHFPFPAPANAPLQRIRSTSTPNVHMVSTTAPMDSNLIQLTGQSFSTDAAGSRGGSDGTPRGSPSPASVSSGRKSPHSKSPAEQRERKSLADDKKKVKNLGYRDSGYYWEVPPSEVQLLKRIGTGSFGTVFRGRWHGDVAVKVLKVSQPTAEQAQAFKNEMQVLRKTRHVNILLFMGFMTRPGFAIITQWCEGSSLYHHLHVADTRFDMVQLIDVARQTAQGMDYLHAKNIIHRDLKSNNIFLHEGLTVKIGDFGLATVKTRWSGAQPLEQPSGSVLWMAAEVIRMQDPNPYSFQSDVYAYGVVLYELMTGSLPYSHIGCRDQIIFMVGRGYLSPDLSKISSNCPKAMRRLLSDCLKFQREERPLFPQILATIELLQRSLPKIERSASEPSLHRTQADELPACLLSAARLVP
Kind of series: Kinase activity assay, A-Raf.

For the next series, the target named is C-Raf (Homo sapiens, UniProt P04049). Put plainly: Kinase activity assay, C-Raf.
Another series concerns the target TrkA (Homo sapiens, UniProt P04629). Put plainly: Kinase activity assay, TrkA.
The nature of series [2]: Intrinsic dissolution rate in simulated intestinal fluid (SIF). In kind it is physicochemical. Conditions: pellet, 310 nm, versus form 2 polymorph free base. As to the method: (§1) The intrinsic dissolution rate of a similarly prepared substantially amorphous arginine complex of P-1167 was compared to that of the form 2 polymorph in simulated gastric fluid (SGF) without enzyme and in simulated intestinal fluid (SIF). A pellet of test sample was dissolved in the appropriate fluid, and the UV absorbance as a function of time was measured at 254 nm (SGF) or 310 nm (SIF) and plotted. […] As such, significant improvement of dissolution of the arginine complex is shown, which is likely to be improved further by processing the complex to a completely amorphous form.

A short description of series [3]: Intrinsic dissolution rate in simulated gastric fluid (SGF) without enzyme. Conditions: pellet, 254 nm. In kind it is physicochemical. Here is the method:
as §1

pIC50: −log10 of the molar value.

B-Raf, sequence (P15056 whole entry): as the sequence (P15056 whole entry V600E) above, with E600V counted along it
PI3Kγ, sequence (P48736 whole entry): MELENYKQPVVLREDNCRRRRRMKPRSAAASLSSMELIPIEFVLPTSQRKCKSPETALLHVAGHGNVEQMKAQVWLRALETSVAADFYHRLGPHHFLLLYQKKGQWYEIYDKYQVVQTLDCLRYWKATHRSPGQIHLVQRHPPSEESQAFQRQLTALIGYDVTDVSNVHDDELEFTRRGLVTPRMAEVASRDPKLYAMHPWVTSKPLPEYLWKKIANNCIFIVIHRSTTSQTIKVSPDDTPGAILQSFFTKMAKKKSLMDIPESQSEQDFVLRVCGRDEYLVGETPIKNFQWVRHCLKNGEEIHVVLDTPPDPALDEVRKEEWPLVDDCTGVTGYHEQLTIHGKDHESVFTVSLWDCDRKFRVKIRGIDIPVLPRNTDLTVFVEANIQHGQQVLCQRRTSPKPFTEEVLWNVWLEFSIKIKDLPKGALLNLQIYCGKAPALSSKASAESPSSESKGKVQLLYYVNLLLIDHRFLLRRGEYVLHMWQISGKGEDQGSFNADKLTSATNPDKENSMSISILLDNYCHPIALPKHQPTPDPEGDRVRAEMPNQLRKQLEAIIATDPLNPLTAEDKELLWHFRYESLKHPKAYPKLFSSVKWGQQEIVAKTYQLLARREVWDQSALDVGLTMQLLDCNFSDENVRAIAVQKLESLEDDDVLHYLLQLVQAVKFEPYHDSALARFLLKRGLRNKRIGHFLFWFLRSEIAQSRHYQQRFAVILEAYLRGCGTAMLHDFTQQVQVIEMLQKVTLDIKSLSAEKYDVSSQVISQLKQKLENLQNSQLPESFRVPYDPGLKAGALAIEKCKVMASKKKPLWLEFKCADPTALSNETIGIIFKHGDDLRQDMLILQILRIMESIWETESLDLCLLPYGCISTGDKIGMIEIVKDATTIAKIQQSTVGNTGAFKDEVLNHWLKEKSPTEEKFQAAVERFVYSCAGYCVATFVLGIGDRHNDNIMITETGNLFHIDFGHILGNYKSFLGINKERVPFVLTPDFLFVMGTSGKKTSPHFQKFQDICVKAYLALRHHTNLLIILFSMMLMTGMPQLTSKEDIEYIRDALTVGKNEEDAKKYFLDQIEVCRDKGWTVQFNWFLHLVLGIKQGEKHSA

`CCCS(=O)(=O)Nc1ccc(F)c(C(=O)c2c[nH]c3ncc(-c4ccc(Cl)cc4)cc23)c1F` [P-1167 Form 2, Propane-1-sulfonic acid {3-[5-(4-chloro-phenyl)-1H-pyrrolo[2,3-b]pyridine-3-carbonyl]-2,4-difluoro-phenyl}-amide]: the “relative stability of polymorphic forms” value in series [1] was “more stable polymorph”.

By pIC50 is commonly meant the IC50 on a negative log10 scale, so that one unit is a factor of ten. In the case of `CCCS(=O)(=O)Nc1ccc(F)c(C(=O)c2c[nH]c3ncc(-c4cccc(S(=O)(=O)NC)c4)cc23)c1F` [P-2170, 3-{3-[2,6-Difluoro-3-(propane-1-sulfonylamino)-benzoyl]-1H-pyrrolo[2,3-b]pyridin-5-yl}-N-methyl-benzenesulfonamide], the pIC50 against Kit, at PI3Kα, on Src, on Kdr, on PI3Kδ and at B-Raf V600E was at least 5.00 in each case. Besides, the pIC50 on Fms is at least 5.00.

`CCCS(=O)(=O)Nc1ccc(F)c(C(=O)c2c[nH]c3ncc(-c4cncc(S(C)(=O)=O)c4)cc23)c1F` [P-2188]: the pIC50 on PI3Kα, on PI3Kγ, on Kdr, at B-Raf, against PI3Kδ and on B-Raf V600E was at least 5.00 each time.

Consider `CCCS(=O)(=O)Nc1cccc(C(=O)c2c[nH]c3ncc(-c4cnc(OC)nc4)cc23)c1F` [P-2407, Propane-1-sulfonic acid {2-fluoro-3-[5-(2-methoxy-pyrimidin-5-yl)-1H-pyrrolo[2,3-b]pyridine-3-carbonyl]-phenyl}-amide], for which the negative-log IC50 (pIC50) against PI3Kα, against MAP4K4, against A-Raf, against PI3Kγ, at B-Raf and at B-Raf V600E was at least 5.00 throughout. In addition, the pIC50 against C-Raf and against TrkA was at least 5.00 each time.

For `CCCS(=O)(=O)Nc1ccc(F)c(C(=O)c2c[nH]c3ncc(-c4ccc(Cl)cc4)cc23)c1F` [arginine complex of P-1167, propane-1-sulfonic acid {3-[5-(4-chloro-phenyl)-1H-pyrrolo[2,3-b]pyridine-3-carbonyl]-2,4-difluoro-phenyl}-amide], the “UV absorbance in SIF (dissolution)” value in [2] is listed as “substantially higher absorbance in SIF than the free base”. Further, the “time of maximum absorbance in SGF” value in [3] was “approximately 200 minutes”. In addition, the “maximum UV absorbance in SGF (dissolution)” value in [3] (versus form 2 polymorph free base) is “substantially greater than the free base”.
